In patent US20250129385A1, “GENE-EDITING METHODS FOR EMBRYONIC STEM CELLS” (ABS Global, Inc., priority 2022, published 2025):

How the values were obtained:
Format in all cases: cell-based
[1] = system: ROSA safe harbor locus; assay: CRISPR-Cas9 RNP gene editing of bovine ESC, indels by Sanger sequencing/TIDE, ROSA locus; conditions: gbESC_H2682 cells; RNP 20 pmol SpCas9 + 60 pmol sgRNA, program CM138; DNA after four days; TIDE
Description: (§1) Test edits were performed in the ROSA and CD18 loci. CRISPR guides targeting the CD18 (ITGB2) gene at chr1:144,776,517, or the ROSA safe harbor locus region chr22:17,210,883-17,210,982, (genome assembly ARS-UCD1.2/bosTau9) were designed and synthesized as sgRNA molecules (IDT, Coralville IA) as shown in Table 2.
(§2) Ribonucleoprotein complexes formed from 20 pmol SpCas9 (IDT, Coralville IA) and 60 pmol sgRNA were electroporated into gbESC_H2682 cells using P3 nucleofection solution and the Amaxa 4D program CM138. After four days DNA from the cells was harvested using QUICKEXTRACT™ reagent (Lucigen, Middleton WI), and PCR was performed using the primers in Table 3.

[2] = system: CD18 (ITGB2) gene; assay: CRISPR-Cas9 RNP gene editing of bovine ESC, indels by Sanger sequencing/TIDE, CD18 locus; conditions: gbESC_H2682 cells; RNP 20 pmol SpCas9 + 60 pmol sgRNA, program CM138; DNA after four days; TIDE
Description: as §1, §2

[3] = system: Porcine stem cell line C2; assay: Single passage cell growth in media #2 with additives (CELLTITER-GLO 2.0); conditions: simple defined media #2 plus additive, day five; for Cell Growth (% of simple media): line C2 passaged 1:80, laminin 521, changed daily
Description: A revised simple defined media #2 (Table 6, with lower ascorbic acid and FGF2) was used to determine any immediate benefit of certain additives over the timeframe of one passage.
Porcine stem cell line C2 (see Example 2) growing in the standard TI media conditions was passaged at a 1:80 ratio into a laminin 521 coated 24 well plate containing simple defined media #2 alone or with the addition of 1% bovine serum albumin, 1% Albumax, 1 mg/mL polyvinyl acetate, 1:500 chemically defined lipids (Gibco), 1:500 lipid mixture solution (Peprotech), 1:1000 Trace Elements B or C (Corning), sodium bicarbonate, and double the amount of ITS (insulin/transferrin/selenium). Cells were incubated at 38.5° C./5% 02 and media and additives were changed daily. On day five cell growth was measured using the CELLTITER-GLO® 2.0 kit (Promega, Madison WI).

[4] = system: seventh exon of CD163; assay: CRISPR-CAS9 editing of porcine ESC, single-cell clones screened by PCR genotyping; conditions: two guides together, C9 line; RNP 20 pmol SpCas9 + 60 pmol sgRNA, pulse DS137; colonies screened at day 21
From the text: As proof of concept, the present inventors sought to create the CD163 edit disclosed in U.S. Pat. No. 11,535,850. Two guides, ctggcttact cctatcatga agg (SEQ ID NO: 103) and tcccatgcca tgaagagggt agg (SEQ ID NO: 104) were used to excise the seventh exon of CD163. These guides were electroporated into the C9 line by mixing cells in P3 nucleofection solution with ribonucleoprotein (20 pmol SpCas9 complexed with 60 pmol of the guide sgRNA) and using the pulse condition DS137 in a 4D-Nucleofector system (Lonza, Walkersville MD). Between day 7 and 12 post-electroporation, single cells were deposited one per well into a 96 well plate (coated with laminin 521 and containing TI media with Y27632) using a Hana Single Cell Dispenser instrument (Namocell, San Jose CA). Cells were allowed to grow until day 21, and then colonies were screened by PCR genotyping (see 11,535,850).

For “748: sgRNA, guide sequence TGTCGAGTCTCGATTATGGG, targeting bovine ROSA safe harbor locus (listed as DNA, chemistry not given here; listed as Bos taurus) [compound 748]”, the “Efficiency (%) (editing frequency)” value [1] was 74.3%.
“749: sgRNA, guide sequence ATAATCGAGACTCGACATGG, targeting bovine ROSA safe harbor locus (listed as DNA, chemistry not given here; listed as Bos taurus) [compound 749]” was tested, and the “Efficiency (%) (editing frequency)” value [1] was 66.5%.
For “750: sgRNA, guide sequence AGGCGATGACGAGATCGCGG, targeting bovine ROSA safe harbor locus (listed as DNA, chemistry not given here; listed as Bos taurus) [compound 750]”, the “Efficiency (%) (editing frequency)” value [1] was 58.2%.
With “754: sgRNA, guide sequence CCCCGTGGGACTCACCGGAC, targeting bovine CD18 (ITGB2) gene (listed as DNA, chemistry not given here; listed as Bos taurus) [compound 754]” the “Efficiency (%) (editing frequency)” value [2] was 34.9%.
For `O=C([O-])O.[Na+]` [Sodium bicarbonate], the “Cell Growth (% of simple media)” value [3] was 75%.
With “+ 1% BSA (Gibco A10008-01): 1% bovine serum albumin added to simple defined media #2” the “effect on cell growth in words” value ([3]; line C2) was “beneficial to cell growth” and the “Cell Growth (% of simple media)” value [3] was 187%.
In the case of “SEQ ID NO: 103: guide ctggcttact cctatcatga agg used to excise the seventh exon of CD163 (guide CTGGCTTACTCCTATCATGAAGG; listed as DNA, chemistry not given here; listed as Sus scrofa)”, the “clones homozygous for the CD163 edit” value [4] is reported as “Two clones that were homozygous for the edit were found”.
With “SEQ ID NO: 104: guide tcccatgcca tgaagagggt agg used to excise the seventh exon of CD163 (guide TCCCATGCCATGAAGAGGGTAGG; listed as DNA, chemistry not given here; listed as Sus scrofa)” the “clones homozygous for the CD163 edit” value [4] was “Two clones that were homozygous for the edit were found”.
